Consider 8 compounds from PubChem BioAssay (NCI).

Some test systems named below: MALME-3M melanoma; RXF 393 renal; HL-60(TB) leukemia; ACHN renal; SN12C renal; KM12 colon; SNB-75 CNS; DU-145 prostate; HOP-62 NSCLC; HCT-15 colon.
Common to all, as to assay: NCI anticancer screen, dose series, 48 h

Several values for one entry are separate records, joined by “and”; a condition that tells them apart may be missing. Identical values can stand only once.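 In this assay, cells in 96-well plates receive the compound at five concentrations for 48 hours. Endpoints are linearly interpolated between the surrounding concentrations. At the GI50, growth is halved. At the TGI there is no net growth.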 A value given as a limit tells only on which side of the number the result lay.

On to `COCCNC(=O)c1ccc(-c2nc3ccc4[nH]ncc4c3c3c2CCCC3)cc1`, for which the GI50 in the assay on MALME-3M melanoma is 2.74 µM; with RXF 393 renal, 0.498 µM; with HL-60(TB) leukemia, 2.43 µM; in the assay on ACHN renal, 1.14 µM; with SN12C renal it was 2.61 µM; in the assay with KM12 colon, 0.741 µM. In addition, the GI50 with SNB-75 CNS was 2.01 µM; in the assay with DU-145 prostate, 2.12 µM; in the assay with HOP-62 NSCLC it was 0.969 µM; with HCT-15 colon, 2.67 µM. Further, the TGI in the assay with MALME-3M melanoma was 18 µM; with RXF 393 renal, 3.7 µM; with HL-60(TB) leukemia it was 7.33 µM; with ACHN renal it was 57.7 µM; in the assay with SN12C renal, 91.7 µM; in the assay with KM12 colon, 42.5 µM. Moreover, the TGI in the assay on SNB-75 CNS was 6.24 µM; in the assay with DU-145 prostate, more than 100 µM; in the assay on HOP-62 NSCLC, 39.5 µM; with HCT-15 colon it was more than 100 µM.
`CCCCCN(CCCCC)CC(O)c1cc2c(c3ccccc13)CCCC2` (stereo not drawn): the GI50 in the assay on MALME-3M melanoma is 3.71 µM and 10.4 µM; in the assay on RXF 393 renal, 2.31 µM and 2.88 µM; with HL-60(TB) leukemia, 2.53 µM and 7.51 µM; in the assay with ACHN renal, 5.03 µM and 8.43 µM; with SN12C renal it was 6.12 µM and 13.8 µM; in the assay with KM12 colon, 3.34 µM and 6.95 µM. Further, the GI50 in the assay with SNB-75 CNS was 10.4 µM and 11.9 µM; in the assay with DU-145 prostate, 10.1 µM and 21.4 µM; in the assay with HOP-62 NSCLC, 3.62 µM and 12.1 µM; in the assay with HCT-15 colon it was 5.31 µM and 6.52 µM. Besides, the TGI with MALME-3M melanoma was 15.6 µM and 24.6 µM; in the assay with RXF 393 renal, 6.71 µM and 7.13 µM; in the assay with ACHN renal it was 17.9 µM and 22.6 µM; with SN12C renal it was 19.8 µM and 30 µM; with KM12 colon it was 12.3 µM and 21.5 µM; with SNB-75 CNS it was 22.7 µM and 25.1 µM. Besides, the TGI is 21.7 µM and 48.1 µM in the assay with DU-145 prostate; 12.9 µM and 25.7 µM with HOP-62 NSCLC; 20.8 µM and 26.4 µM in the assay with HCT-15 colon.
For the compound `N#Cc1nc2cc(F)c(F)cc2nc1-c1ccc(Cl)cc1`, the GI50 is 15.8 µM in the assay on MALME-3M melanoma; 6.23 µM in the assay on RXF 393 renal; 3.43 µM in the assay on HL-60(TB) leukemia; 10.4 µM in the assay on ACHN renal; 6.83 µM in the assay with SN12C renal; 51.9 µM in the assay on KM12 colon. Also, the GI50 was 33.1 µM in the assay with SNB-75 CNS, 22.4 µM with DU-145 prostate, 45 µM in the assay with HOP-62 NSCLC and 1.44 µM in the assay with HCT-15 colon. Moreover, the TGI was 39.1 µM in the assay with MALME-3M melanoma; 18.3 µM in the assay with RXF 393 renal; more than 28.2 µM in the assay with HL-60(TB) leukemia; 43.8 µM with ACHN renal; 34.8 µM in the assay with SN12C renal; more than 100 µM with KM12 colon. In addition, the TGI in the assay on SNB-75 CNS was 83.1 µM; with DU-145 prostate, more than 82.6 µM; with HOP-62 NSCLC it was more than 100 µM; in the assay on HCT-15 colon, 2.76 µM.
Regarding `COc1ccc2c(c1)OC(N)=C(C#N)C2c1ccc(F)cc1` (stereo not drawn), the GI50 in the assay on MALME-3M melanoma is 12.9 µM; with RXF 393 renal, 2.28 µM; in the assay with HL-60(TB) leukemia, 0.45 µM; in the assay on ACHN renal it was 6.35 µM; in the assay on SN12C renal, 6.82 µM; with KM12 colon, 0.656 µM. The GI50 is 1.4 µM with SNB-75 CNS, 3.05 µM with DU-145 prostate, 0.986 µM in the assay with HOP-62 NSCLC and 0.515 µM in the assay with HCT-15 colon. Also, the TGI in the assay with MALME-3M melanoma was 77.9 µM; in the assay with RXF 393 renal it was 17.8 µM; in the assay with HL-60(TB) leukemia it was 7.15 µM; in the assay with ACHN renal it was more than 100 µM; in the assay on SN12C renal, more than 100 µM; in the assay on KM12 colon, 25.8 µM. Moreover, the TGI in the assay on SNB-75 CNS is 13.3 µM; with DU-145 prostate, more than 100 µM; with HOP-62 NSCLC it was more than 100 µM; in the assay with HCT-15 colon, 51.6 µM.
As to `Oc1c(N=Nc2ccccc2)c2ccccc2c2ccc3ccccc3c12`, the TGI with MALME-3M melanoma, in the assay with RXF 393 renal, in the assay with HL-60(TB) leukemia, in the assay with ACHN renal, in the assay with SN12C renal and with KM12 colon was more than 100 µM each time. Moreover, the TGI with SNB-75 CNS, in the assay on DU-145 prostate, in the assay with HOP-62 NSCLC and in the assay on HCT-15 colon was more than 100 µM each time.
Take `O=P1(O)c2ccccc2Nc2cc(C(F)(F)F)ccc21`: the TGI in the assay with MALME-3M melanoma, in the assay on RXF 393 renal, in the assay on HL-60(TB) leukemia, in the assay with ACHN renal, in the assay with SN12C renal and in the assay on KM12 colon was more than 100 µM each time. The TGI in the assay on SNB-75 CNS, in the assay with DU-145 prostate, in the assay on HOP-62 NSCLC and with HCT-15 colon was more than 100 µM throughout.
In the case of `O=Cc1ccc(O)c2ncccc12`, the GI50 in the assay with MALME-3M melanoma was 3.62 µM; in the assay on RXF 393 renal, 10.4 µM; with ACHN renal, 12.9 µM; in the assay with SN12C renal, 3.81 µM; in the assay with KM12 colon, 5.65 µM; with SNB-75 CNS, 16.9 µM. Besides, the values for the GI50 in the assay with DU-145 prostate, in the assay on HOP-62 NSCLC and in the assay with HCT-15 colon were 7.28 µM, 5.59 µM and 1.29 µM, respectively. For the same compound, the TGI with MALME-3M melanoma is 30.4 µM; in the assay with RXF 393 renal, 33.8 µM; in the assay on HL-60(TB) leukemia, more than 100 µM; in the assay on ACHN renal, more than 100 µM; with SN12C renal, more than 100 µM; in the assay on KM12 colon, 40.5 µM. The TGI in the assay on SNB-75 CNS was more than 82.4 µM; in the assay on DU-145 prostate, 32.1 µM; in the assay on HOP-62 NSCLC it was 45.3 µM; in the assay on HCT-15 colon it was 18.3 µM.
Consider `CCOC1C=CCCO1` (stereo not drawn), for which the TGI with MALME-3M melanoma, with RXF 393 renal, in the assay on HL-60(TB) leukemia, in the assay with ACHN renal, with SN12C renal and in the assay with KM12 colon was more than 100 µM each time. The TGI with SNB-75 CNS, with DU-145 prostate, in the assay on HOP-62 NSCLC and with HCT-15 colon was more than 100 µM each time.
